Experimental data from US8003660B2, “Modulators of muscarinic receptors” (Vertex Pharmaceuticals Incorporated, priority 2006, dated 2011).

Columns and labels:
Format in all cases: cell-based
M4 muscarinic receptor = biological target: T1, M4 muscarinic receptor (Homo sapiens, UniProt P08173); assay: Functional mobilization of intracellular calcium (FLIPR) in CHO cells expressing M4; conditions: for M4 Activity: CHO cells expressing M4, FLIPR calcium assay; for Emax: CHO, 100% efficacy = maximum response obtained with the Carbachol control
T1 construct: expressed in transfected cells; host or cells: CHO (M4-CHO)
T1 sequence (P08173 1-479): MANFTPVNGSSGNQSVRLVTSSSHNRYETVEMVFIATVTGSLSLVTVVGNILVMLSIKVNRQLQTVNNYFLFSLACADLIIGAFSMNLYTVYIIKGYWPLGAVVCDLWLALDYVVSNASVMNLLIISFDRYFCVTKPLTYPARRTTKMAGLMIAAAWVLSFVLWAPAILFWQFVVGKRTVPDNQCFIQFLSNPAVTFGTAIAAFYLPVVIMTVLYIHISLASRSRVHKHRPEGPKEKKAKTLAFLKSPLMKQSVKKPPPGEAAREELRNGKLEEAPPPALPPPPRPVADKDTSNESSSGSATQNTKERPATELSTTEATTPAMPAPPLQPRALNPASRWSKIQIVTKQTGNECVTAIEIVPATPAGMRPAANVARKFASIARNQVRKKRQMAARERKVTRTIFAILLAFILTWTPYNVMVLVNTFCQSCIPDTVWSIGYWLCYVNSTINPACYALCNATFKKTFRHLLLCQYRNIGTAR
Outline: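 Read-out: FLIPR fluorescence (ex 488, em 540 nm) over 60 s. Recombinant CHO lines are dye-loaded (Fluo-3 AM or Calcium 3) with 1 mM probenecid. For antagonist mode, compound is pre-incubated 15 min, or co-applied, then carbachol is added at 3× EC80 per subtype.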

M1 muscarinic receptor = biological target: T2, M1 muscarinic receptor (Homo sapiens, UniProt P11229); assay: Functional mobilization of intracellular calcium (FLIPR) in CHO cells expressing M1; conditions: for M1 Activity: CHO cells expressing M1, FLIPR calcium assay; for Emax: CHO, 100% efficacy = maximum response obtained with the Carbachol control
T2 construct: expressed in transfected cells; host or cells: CHO (M1-CHO)
T2 sequence (P11229 1-460): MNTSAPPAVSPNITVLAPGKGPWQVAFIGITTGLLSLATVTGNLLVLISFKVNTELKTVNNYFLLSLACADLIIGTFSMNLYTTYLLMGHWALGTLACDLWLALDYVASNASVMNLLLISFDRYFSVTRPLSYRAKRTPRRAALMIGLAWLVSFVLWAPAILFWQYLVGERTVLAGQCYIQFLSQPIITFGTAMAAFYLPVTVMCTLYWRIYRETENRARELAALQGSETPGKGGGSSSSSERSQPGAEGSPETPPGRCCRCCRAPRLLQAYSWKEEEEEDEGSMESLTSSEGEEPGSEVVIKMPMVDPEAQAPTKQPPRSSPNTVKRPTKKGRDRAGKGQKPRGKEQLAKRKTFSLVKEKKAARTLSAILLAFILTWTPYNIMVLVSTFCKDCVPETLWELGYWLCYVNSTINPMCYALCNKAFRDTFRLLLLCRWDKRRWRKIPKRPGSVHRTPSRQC
Outline: (§1)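 Recombinant CHO cells loaded with Fluo-3 AM or Calcium 3 dye in pH 7.4 buffer containing 1 mM probenecid, with 0.5% final DMSO. For agonism, compound is added directly. For inhibition, it is preincubated 15 min, or co-applied, before carbachol at EC80. FLIPR fluorescence (ex 488, em 540 nm) is recorded for 60 s.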

M3 muscarinic receptor = biological target: T3, M3 muscarinic receptor (Homo sapiens, UniProt P20309); assay: Functional mobilization of intracellular calcium (FLIPR) in CHO cells expressing M3; conditions: for M3 Activity: CHO cells expressing M3, FLIPR calcium assay; for Emax: CHO, 100% efficacy = maximum response obtained with the Carbachol control
T3 construct: expressed in transfected cells; host or cells: CHO (M3-CHO)
Outline: as §1

M2 muscarinic receptor = biological target: T4, M2 muscarinic receptor (Homo sapiens, UniProt P08172); assay: Functional mobilization of intracellular calcium (FLIPR) in CHO cells expressing M2; conditions: for M2 Activity: CHO cells expressing M2, FLIPR calcium assay; for Emax: CHO, 100% efficacy = maximum response obtained with the Carbachol control
T4 construct: expressed in transfected cells; host or cells: CHO (M2-CHO)
T4 sequence (P08172 1-466): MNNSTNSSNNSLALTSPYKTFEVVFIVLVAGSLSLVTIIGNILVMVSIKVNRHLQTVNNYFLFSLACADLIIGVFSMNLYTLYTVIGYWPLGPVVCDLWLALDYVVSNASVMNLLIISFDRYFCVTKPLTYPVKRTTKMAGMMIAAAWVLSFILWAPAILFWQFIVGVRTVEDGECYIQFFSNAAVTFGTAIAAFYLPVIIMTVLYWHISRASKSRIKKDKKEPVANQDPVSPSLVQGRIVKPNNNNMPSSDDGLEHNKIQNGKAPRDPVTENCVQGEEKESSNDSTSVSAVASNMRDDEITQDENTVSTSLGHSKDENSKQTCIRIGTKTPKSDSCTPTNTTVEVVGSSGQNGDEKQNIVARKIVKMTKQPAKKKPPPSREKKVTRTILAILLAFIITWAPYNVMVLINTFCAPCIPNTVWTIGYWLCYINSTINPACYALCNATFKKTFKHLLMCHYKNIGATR
Outline: as §1

T3 sequence (P20309 whole entry): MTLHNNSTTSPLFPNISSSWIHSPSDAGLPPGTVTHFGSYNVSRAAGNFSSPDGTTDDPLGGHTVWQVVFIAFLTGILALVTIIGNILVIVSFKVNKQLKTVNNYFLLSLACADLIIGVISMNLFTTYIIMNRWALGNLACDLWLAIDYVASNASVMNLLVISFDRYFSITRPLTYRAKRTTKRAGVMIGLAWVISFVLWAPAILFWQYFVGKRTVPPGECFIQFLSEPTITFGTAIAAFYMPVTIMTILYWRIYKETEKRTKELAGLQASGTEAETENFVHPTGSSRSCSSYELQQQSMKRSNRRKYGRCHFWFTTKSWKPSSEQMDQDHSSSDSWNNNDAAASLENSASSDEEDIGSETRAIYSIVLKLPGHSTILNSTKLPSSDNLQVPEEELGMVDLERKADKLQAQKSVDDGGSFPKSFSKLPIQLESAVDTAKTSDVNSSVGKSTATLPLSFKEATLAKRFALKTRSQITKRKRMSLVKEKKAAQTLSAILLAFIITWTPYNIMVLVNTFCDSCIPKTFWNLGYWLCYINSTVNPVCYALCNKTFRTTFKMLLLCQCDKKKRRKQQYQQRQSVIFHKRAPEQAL

SMILES | M4 Activity (M4 muscarinic receptor) | Emax (M4 muscarinic receptor) | M1 Activity (M1 muscarinic receptor) | Emax (M1 muscarinic receptor) | M3 Activity (M3 muscarinic receptor) | Emax (M3 muscarinic receptor) | M2 Activity (M2 muscarinic receptor) | Emax (M2 muscarinic receptor)
CC(C)(C)CN1CCC2(CC1)CC(C(=O)O)c1ccccc12 (stereo not shown) [compound 246] | + (activity was measured to be greater than 5.0 μM) | < 25% | + (activity was measured to be greater than 5.0 μM) | < 25% | + (activity was measured to be greater than 5.0 μM) | < 25% | + (activity was measured to be greater than 5.0 μM) | < 25%
CC(C)CCN1CCC2(CC1)C[C@H](NC(=O)C1CC1)c1ccccc12 [compound 247] | + (activity was measured to be greater than 5.0 μM) | < 25% | + (activity was measured to be greater than 5.0 μM) | 25 to 100% | + (activity was measured to be greater than 5.0 μM) | < 25% | + (activity was measured to be greater than 5.0 μM) | < 25%
CC/C=C\CCCCCCN1CCC2(CC1)C[C@H](NC(C)=O)c1ccccc12 [compound 248] | + (activity was measured to be greater than 5.0 μM) | 25 to 100% | ++ (activity was measured to be from 2.0 μM to 5.0 μM) | 25 to 100% | + (activity was measured to be greater than 5.0 μM) | < 25% | + (activity was measured to be greater than 5.0 μM) | < 25%
CC(C)(C)CCN1CCC2(CC1)CC(C(=O)O)c1ccccc12 (stereo not shown) [compound 250] | + (activity was measured to be greater than 5.0 μM) | 25 to 100% | + (activity was measured to be greater than 5.0 μM) | 25 to 100% | + (activity was measured to be greater than 5.0 μM) | < 25% | + (activity was measured to be greater than 5.0 μM) | < 25%
CC(C)(C)CCN1CCC2(CC1)C[C@H](NC(=O)N1CCCC1)c1ccccc12 [compound 251] | + (activity was measured to be greater than 5.0 μM) | < 25% | + (activity was measured to be greater than 5.0 μM) | < 25% | + (activity was measured to be greater than 5.0 μM) | < 25% | + (activity was measured to be greater than 5.0 μM) | < 25%
Cc1ccc2c(c1)C(=O)CC21CCN(C(=O)OC(C)(C)C)CC1 [compound 252] | + (activity was measured to be greater than 5.0 μM) | < 25% | + (activity was measured to be greater than 5.0 μM) | < 25% | + (activity was measured to be greater than 5.0 μM) | < 25% | + (activity was measured to be greater than 5.0 μM) | < 25%
CC(=O)N[C@H]1CC2(CCN(CCC(C)(C)C)CC2)c2ccc(C)cc21 [compound 253] | + (activity was measured to be greater than 5.0 μM) | 25 to 100% | + (activity was measured to be greater than 5.0 μM) | < 25% | + (activity was measured to be greater than 5.0 μM) | < 25% | + (activity was measured to be greater than 5.0 μM) | < 25%
CC(C)(C)OC(=O)N1CCC2(CC1)C[C@H](NC(=O)c1ccccc1)c1ccccc12 [compound 255] | + (activity was measured to be greater than 5.0 μM) | < 25% | + (activity was measured to be greater than 5.0 μM) | < 25% | + (activity was measured to be greater than 5.0 μM) | < 25% | + (activity was measured to be greater than 5.0 μM) | < 25%
CC(=O)N[C@H]1CC2(CCN(CC(=O)O)CC2)c2ccccc21 [compound 256] | + (activity was measured to be greater than 5.0 μM) | < 25% | + (activity was measured to be greater than 5.0 μM) | < 25% | + (activity was measured to be greater than 5.0 μM) | < 25% | + (activity was measured to be greater than 5.0 μM) | < 25%
COC(=O)CCCCCN1CCC2(CC1)C[C@H](NC(C)=O)c1ccccc12 [compound 257] | +++ (activity was measured to be less than 2.0 μM) | 25 to 100% | +++ (activity was measured to be less than 2.0 μM) | > 100% | + (activity was measured to be greater than 5.0 μM) | 25 to 100% | +++ (activity was measured to be less than 2.0 μM) | 25 to 100%
CC(=O)N[C@H]1CC2(CCN(CC(=O)N(CC#N)C(C)C)CC2)c2ccccc21 [compound 258] | + (activity was measured to be greater than 5.0 μM) | < 25% | + (activity was measured to be greater than 5.0 μM) | < 25% | + (activity was measured to be greater than 5.0 μM) | < 25% | + (activity was measured to be greater than 5.0 μM) | < 25%
CC(C)CCN1CCC2(CC1)CC(C(=O)O)c1ccccc12 (stereo not shown) [compound 259] | + (activity was measured to be greater than 5.0 μM) | < 25% | + (activity was measured to be greater than 5.0 μM) | 25 to 100% | + (activity was measured to be greater than 5.0 μM) | < 25% | + (activity was measured to be greater than 5.0 μM) | < 25%
CC(=O)NC1CCC2(CCN(C(=O)OC(C)(C)C)CC2)c2ccccc21 (stereo not shown) [compound 260] |  | < 25% |  | < 25% |  | < 25% |  | < 25%
CC(=O)N[C@H]1CC2(CCN(C(=O)OC(C)(C)C)CC2)c2ccc(C)cc21 [compound 261] | + (activity was measured to be greater than 5.0 μM) | < 25% | + (activity was measured to be greater than 5.0 μM) | < 25% | + (activity was measured to be greater than 5.0 μM) | < 25% | + (activity was measured to be greater than 5.0 μM) | < 25%
C#CCNC(=O)CN1CCC2(CC1)C[C@H](NC(C)=O)c1ccccc12 [compound 262] | + (activity was measured to be greater than 5.0 μM) | < 25% | + (activity was measured to be greater than 5.0 μM) | < 25% | + (activity was measured to be greater than 5.0 μM) | < 25% | + (activity was measured to be greater than 5.0 μM) | < 25%
C=CCC(C)(C)CN1CCC2(CC1)C[C@H](NC(C)=O)c1ccccc12 [compound 263] | ++ (activity was measured to be from 2.0 μM to 5.0 μM) | < 25% | + (activity was measured to be greater than 5.0 μM) | 25 to 100% | + (activity was measured to be greater than 5.0 μM) | < 25% | + (activity was measured to be greater than 5.0 μM) | < 25%
